What was measured:
[1] = target: T1, Phosphatidylinositol 4,5-bisphosphate 3-kinase catalytic subunit delta isoform (Homo sapiens) (UniProt O00329); experiment: Inhibition of human PIK3CD in HL-60 cells lysate assessed as reduction of labeling of acyl-phosphate ATP probe at 100 nM; type: cell-free
T1 sequence (whole entry): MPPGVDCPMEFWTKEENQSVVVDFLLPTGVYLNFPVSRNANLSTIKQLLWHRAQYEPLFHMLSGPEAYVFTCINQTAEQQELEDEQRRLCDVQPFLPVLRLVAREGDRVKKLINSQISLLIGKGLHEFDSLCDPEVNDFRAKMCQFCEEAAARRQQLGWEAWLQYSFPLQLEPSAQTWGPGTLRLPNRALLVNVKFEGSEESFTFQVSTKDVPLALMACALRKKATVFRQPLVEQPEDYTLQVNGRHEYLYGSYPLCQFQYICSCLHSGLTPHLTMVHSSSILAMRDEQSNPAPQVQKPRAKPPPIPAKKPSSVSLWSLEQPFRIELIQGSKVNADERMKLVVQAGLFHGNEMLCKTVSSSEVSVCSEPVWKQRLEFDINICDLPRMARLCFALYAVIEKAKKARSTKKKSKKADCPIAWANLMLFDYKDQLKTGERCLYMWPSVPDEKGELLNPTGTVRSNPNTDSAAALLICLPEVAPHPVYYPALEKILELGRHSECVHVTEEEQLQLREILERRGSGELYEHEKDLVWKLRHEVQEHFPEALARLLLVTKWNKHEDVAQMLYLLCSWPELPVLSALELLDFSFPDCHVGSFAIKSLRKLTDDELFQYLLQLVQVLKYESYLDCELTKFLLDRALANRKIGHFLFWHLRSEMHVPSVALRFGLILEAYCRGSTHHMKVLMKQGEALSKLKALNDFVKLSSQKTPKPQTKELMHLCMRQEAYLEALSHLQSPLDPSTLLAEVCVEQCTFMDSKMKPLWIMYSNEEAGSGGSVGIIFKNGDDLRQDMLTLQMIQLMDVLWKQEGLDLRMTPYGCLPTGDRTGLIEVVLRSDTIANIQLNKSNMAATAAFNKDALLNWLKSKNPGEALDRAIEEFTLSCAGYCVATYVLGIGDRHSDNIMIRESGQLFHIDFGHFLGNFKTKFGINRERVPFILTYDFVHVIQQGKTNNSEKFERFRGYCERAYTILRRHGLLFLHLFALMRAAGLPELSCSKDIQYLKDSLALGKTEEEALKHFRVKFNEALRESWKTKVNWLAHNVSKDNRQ

[2] = target: Phosphatidylinositol 4,5-bisphosphate 3-kinase catalytic subunit gamma isoform (Homo sapiens) (UniProt P48736); experiment: Inhibition of human PIK3CG in HL-60 cells lysate assessed as reduction of labeling of acyl-phosphate ATP probe at 100 nM; type: cell-free
[3] = target: T2, Inhibitor of nuclear factor kappa-B kinase subunit alpha (Homo sapiens) (UniProt O15111); experiment: Inhibition of human IKKalpha in HL-60 cells lysate assessed as reduction of labeling of acyl-phosphate ATP probe at 100 nM; type: cell-free
T2 sequence (whole entry): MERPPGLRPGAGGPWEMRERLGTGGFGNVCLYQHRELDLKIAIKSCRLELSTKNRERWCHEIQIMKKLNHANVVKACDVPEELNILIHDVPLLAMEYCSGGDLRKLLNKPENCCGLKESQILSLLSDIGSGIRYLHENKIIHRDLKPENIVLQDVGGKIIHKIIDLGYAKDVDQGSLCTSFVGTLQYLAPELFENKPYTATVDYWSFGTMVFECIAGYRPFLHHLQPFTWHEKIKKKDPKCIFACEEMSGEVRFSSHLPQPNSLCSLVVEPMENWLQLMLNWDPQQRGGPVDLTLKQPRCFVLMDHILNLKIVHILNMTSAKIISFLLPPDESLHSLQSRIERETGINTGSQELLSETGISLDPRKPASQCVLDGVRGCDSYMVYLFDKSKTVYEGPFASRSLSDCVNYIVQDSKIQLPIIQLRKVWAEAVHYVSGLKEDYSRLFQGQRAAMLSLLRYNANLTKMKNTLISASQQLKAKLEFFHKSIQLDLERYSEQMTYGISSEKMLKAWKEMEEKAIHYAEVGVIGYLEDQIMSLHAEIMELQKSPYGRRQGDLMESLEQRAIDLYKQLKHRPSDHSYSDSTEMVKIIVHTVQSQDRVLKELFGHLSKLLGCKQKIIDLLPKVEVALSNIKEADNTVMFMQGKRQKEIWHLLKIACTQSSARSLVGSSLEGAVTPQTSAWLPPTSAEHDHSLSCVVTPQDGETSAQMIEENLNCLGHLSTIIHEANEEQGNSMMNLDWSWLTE

[4] = target: Serine/threonine-protein kinase tousled-like 2 (Homo sapiens) (UniProt Q86UE8); experiment: Inhibition of human TLK2 in HL-60 cells lysate assessed as reduction of labeling of acyl-phosphate ATP probe at 100 nM; type: cell-free
[5] = target: T3, Serine/threonine-protein kinase 3 (Homo sapiens) (UniProt Q13188); experiment: Inhibition of human MST2 in HL-60 cells lysate assessed as reduction of labeling of acyl-phosphate ATP probe at 100 nM; type: cell-free
T3 sequence (whole entry): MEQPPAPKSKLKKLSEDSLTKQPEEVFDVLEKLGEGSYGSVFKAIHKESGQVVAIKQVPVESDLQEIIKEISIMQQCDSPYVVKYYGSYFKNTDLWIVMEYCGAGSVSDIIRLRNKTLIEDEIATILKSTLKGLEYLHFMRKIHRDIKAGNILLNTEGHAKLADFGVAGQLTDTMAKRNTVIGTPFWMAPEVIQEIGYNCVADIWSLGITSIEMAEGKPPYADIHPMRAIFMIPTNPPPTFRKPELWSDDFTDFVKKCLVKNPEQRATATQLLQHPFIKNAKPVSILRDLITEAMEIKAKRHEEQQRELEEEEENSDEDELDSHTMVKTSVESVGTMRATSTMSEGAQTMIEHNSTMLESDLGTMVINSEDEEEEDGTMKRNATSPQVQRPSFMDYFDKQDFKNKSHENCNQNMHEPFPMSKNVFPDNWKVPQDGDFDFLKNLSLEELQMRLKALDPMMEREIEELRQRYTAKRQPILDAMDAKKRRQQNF

[6] = target: Serine/threonine-protein kinase 26 (Homo sapiens) (UniProt Q9P289); experiment: Inhibition of human MST4 in HL-60 cells lysate assessed as reduction of labeling of acyl-phosphate ATP probe at 100 nM; type: cell-free
[7] = tested on: HL-60; experiment: Inhibition of human ACK in HL-60 cells lysate assessed as reduction of labeling of acyl-phosphate ATP probe at 100 nM
[8] = target: Tyrosine-protein kinase Fgr (Homo sapiens) (UniProt P09769); experiment: Inhibition of human FGR in HL-60 cells lysate assessed as reduction of labeling of acyl-phosphate ATP probe at 100 nM; type: cell-free
[9] = target: Mitogen-activated protein kinase kinase kinase 11 (Homo sapiens) (UniProt Q16584); experiment: Inhibition of human MLK3 in HL-60 cells lysate assessed as reduction of labeling of acyl-phosphate ATP probe at 100 nM; type: cell-free
[10] = target: Glycogen synthase kinase-3 alpha (Homo sapiens) (UniProt P49840); experiment: Inhibition of human GSK3alpha in HL-60 cells lysate assessed as reduction of labeling of acyl-phosphate ATP probe at 100 nM; type: cell-free
Sequence of Glycogen synthase kinase-3 alpha (Homo sapiens) (P49840 2-483 limits assumed): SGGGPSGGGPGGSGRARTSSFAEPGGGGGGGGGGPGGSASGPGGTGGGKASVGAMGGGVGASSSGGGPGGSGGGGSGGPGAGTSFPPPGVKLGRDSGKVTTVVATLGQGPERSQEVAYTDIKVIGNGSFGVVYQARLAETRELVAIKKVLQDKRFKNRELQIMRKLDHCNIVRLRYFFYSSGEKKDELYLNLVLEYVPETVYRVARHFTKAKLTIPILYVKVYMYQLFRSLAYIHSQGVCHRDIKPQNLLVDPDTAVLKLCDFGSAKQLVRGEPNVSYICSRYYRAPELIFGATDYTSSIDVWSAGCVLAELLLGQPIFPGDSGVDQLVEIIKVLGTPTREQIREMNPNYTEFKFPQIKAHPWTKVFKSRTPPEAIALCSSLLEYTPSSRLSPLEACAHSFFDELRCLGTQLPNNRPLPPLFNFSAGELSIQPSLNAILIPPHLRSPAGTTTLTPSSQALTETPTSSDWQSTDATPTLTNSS

Sequence of Phosphatidylinositol 4,5-bisphosphate 3-kinase catalytic subunit gamma isoform (Homo sapiens) (P48736 whole entry, looked up, canonical isoform): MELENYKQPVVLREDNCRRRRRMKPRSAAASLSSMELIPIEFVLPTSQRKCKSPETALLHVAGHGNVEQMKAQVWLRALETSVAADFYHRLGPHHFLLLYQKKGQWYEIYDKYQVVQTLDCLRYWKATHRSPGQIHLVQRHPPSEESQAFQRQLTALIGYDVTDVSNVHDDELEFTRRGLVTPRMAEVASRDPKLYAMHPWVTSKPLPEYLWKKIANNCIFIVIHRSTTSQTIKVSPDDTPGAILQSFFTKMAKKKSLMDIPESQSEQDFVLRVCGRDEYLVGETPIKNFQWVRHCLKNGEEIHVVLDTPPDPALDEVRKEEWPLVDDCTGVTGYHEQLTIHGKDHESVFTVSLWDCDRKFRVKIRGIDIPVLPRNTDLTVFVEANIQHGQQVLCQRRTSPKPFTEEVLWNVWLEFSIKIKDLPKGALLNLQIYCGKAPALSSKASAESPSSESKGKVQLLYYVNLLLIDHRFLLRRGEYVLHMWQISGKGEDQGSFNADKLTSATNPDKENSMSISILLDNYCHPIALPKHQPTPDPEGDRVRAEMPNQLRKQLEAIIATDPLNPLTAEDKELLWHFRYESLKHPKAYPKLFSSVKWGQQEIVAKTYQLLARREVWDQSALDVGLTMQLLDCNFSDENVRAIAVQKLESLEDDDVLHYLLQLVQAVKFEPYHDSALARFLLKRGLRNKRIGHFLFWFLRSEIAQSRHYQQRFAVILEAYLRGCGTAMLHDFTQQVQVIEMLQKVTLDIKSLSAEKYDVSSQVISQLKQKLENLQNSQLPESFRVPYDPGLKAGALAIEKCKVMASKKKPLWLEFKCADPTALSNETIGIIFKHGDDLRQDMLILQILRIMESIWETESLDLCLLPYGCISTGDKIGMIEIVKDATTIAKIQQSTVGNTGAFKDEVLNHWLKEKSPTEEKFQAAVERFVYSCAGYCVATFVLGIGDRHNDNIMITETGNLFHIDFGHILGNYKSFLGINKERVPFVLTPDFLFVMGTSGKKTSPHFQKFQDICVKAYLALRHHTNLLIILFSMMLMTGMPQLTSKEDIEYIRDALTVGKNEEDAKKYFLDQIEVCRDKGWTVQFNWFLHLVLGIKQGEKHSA
Sequence of Serine/threonine-protein kinase tousled-like 2 (Homo sapiens) (Q86UE8 whole entry, looked up): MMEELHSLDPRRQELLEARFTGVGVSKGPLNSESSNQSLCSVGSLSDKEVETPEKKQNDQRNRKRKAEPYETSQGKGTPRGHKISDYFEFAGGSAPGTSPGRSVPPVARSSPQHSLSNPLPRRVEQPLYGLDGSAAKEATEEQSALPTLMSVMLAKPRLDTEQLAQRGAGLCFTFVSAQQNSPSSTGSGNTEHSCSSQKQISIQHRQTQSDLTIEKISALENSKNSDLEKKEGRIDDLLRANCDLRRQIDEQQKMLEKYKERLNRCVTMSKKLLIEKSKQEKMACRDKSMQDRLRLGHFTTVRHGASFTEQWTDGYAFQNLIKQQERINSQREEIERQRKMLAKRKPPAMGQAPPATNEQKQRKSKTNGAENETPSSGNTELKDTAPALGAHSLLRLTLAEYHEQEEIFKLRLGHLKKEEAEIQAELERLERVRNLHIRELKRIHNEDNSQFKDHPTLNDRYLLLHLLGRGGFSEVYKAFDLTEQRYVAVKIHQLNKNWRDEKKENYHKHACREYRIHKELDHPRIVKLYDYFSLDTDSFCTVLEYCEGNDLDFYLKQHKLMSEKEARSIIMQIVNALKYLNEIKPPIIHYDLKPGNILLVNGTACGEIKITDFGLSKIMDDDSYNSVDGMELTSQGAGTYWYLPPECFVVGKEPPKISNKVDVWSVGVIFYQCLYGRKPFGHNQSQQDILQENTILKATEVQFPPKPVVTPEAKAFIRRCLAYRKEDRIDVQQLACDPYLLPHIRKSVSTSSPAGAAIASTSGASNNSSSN
Sequence of Serine/threonine-protein kinase 26 (Homo sapiens) (Q9P289 2-416 limits assumed): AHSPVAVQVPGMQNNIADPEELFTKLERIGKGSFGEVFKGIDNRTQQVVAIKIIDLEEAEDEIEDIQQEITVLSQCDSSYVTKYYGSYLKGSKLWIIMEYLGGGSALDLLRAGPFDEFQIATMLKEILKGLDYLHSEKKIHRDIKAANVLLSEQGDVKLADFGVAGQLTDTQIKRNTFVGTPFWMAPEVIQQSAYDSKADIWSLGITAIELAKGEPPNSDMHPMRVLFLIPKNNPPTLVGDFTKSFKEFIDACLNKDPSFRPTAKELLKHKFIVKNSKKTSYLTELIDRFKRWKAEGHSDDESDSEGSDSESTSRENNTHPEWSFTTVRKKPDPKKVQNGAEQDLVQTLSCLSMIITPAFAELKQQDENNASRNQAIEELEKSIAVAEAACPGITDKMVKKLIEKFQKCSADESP
Sequence of Mitogen-activated protein kinase kinase kinase 11 (Homo sapiens) (Q16584 whole entry, looked up): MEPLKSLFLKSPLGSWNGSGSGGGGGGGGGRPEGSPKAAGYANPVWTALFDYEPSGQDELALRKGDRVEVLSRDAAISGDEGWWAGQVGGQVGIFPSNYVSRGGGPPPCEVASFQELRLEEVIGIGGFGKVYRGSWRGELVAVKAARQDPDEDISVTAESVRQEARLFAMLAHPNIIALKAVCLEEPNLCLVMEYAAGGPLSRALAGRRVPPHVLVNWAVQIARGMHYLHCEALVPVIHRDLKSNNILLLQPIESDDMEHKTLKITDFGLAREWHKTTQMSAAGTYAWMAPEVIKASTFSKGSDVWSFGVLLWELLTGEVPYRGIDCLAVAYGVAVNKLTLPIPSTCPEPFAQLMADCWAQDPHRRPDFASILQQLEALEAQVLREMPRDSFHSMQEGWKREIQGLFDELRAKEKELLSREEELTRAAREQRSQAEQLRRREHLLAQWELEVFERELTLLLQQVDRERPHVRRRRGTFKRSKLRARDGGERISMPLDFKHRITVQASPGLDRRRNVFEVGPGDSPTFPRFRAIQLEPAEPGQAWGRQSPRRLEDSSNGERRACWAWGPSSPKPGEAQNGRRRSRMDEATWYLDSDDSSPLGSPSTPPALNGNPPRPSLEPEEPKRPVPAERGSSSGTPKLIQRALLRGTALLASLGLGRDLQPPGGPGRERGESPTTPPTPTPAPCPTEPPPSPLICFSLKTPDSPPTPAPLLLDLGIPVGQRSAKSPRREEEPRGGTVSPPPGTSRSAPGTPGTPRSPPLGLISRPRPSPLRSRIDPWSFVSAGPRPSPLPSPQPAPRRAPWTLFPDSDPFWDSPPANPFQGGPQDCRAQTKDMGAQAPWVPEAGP
Sequence of Tyrosine-protein kinase Fgr (Homo sapiens) (P09769 2-529 limits assumed): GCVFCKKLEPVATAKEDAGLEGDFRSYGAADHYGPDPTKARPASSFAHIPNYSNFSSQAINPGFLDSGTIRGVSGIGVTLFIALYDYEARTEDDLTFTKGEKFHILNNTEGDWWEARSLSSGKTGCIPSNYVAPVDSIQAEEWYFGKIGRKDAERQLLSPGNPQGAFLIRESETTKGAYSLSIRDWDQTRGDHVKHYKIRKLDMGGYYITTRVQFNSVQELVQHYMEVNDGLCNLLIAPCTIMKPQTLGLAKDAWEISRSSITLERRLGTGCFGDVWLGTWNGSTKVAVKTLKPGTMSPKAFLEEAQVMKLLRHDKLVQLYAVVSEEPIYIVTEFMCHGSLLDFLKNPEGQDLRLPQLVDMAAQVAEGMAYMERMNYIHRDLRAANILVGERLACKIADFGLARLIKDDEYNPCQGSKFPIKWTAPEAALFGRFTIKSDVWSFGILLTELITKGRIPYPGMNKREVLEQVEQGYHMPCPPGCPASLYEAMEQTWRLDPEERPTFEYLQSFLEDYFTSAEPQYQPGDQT

Compound | inhibition [1] [%] | inhibition [2] [%] | inhibition [3] [%] | inhibition [4] [%] | inhibition [5] [%] | inhibition [6] [%] | inhibition at 0.1 µM [7] [%] | inhibition [8] [%] | inhibition [9] [%] | inhibition [10] [%]
C[C@H]1COc2c(NCCCn3cccn3)c(F)c(N)c3c(=O)c(C#N)cn1c23 | < 35 | < 35 | < 35 | < 35 | < 35 | < 35 | < 35 | < 35 | < 35 | > 99.5
C[C@H]1COc2c(NCCCc3ccccn3)c(F)c(N)c3c(=O)c(C#N)cn1c23 | < 35 | < 35 | < 35 | < 35 | < 35 | < 35 | < 35 | < 35 | < 35 | > 99.5
C[C@H]1COc2c(NCCCn3cccn3)c(F)c(N)c3c(=O)c(C(=O)O)cn1c23 | < 35 | < 35 | < 35 | < 35 | < 35 | < 35 | < 35 | < 35 | < 35 | 95.2
C[C@H]1COc2c(NCCCc3ccccn3)c(F)c(N)c3c(=O)c(C(=O)O)cn1c23 | < 35 | < 35 | < 35 | < 35 | < 35 | < 35 | < 35 | < 35 | < 35 | 94.3

— ChEMBL document CHEMBL1938230, “6-Position optimization of tricyclic 4-quinolone-based inhibitors of glycogen synthase kinase-3β: discovery of nitrile derivatives with picomolar potency” (Bioorg Med Chem Lett, 2012)
